ChEMBL document CHEMBL1128109, “Phenolic replacements for cysteine in farnesyl transferase inhibitors based on CVFM” (Bioorg Med Chem Lett, 1995)

Each compound was assayed against T1, Protein farnesyltransferase (Rattus norvegicus, UniProt Q02293+Q04631) (assay: Inhibitory activity against Farnesyl transferase; 8.5-27.0).
Assay type: protein-complex assay

IC50 [µM]	Structure (SMILES)
8.5	CSCC[C@H](NC(=O)[C@H](Cc1ccccc1)NC(=O)[C@@H](NCc1cc(C(=O)O)ccc1O)C(C)C)C(=O)O

Each compound was assayed against T1, Protein farnesyltransferase (assay: Inhibition of farnesyl transferase).
Assay type: protein-complex assay

Structure (SMILES)	IC50 [µM]
CC[C@H](C)[C@H](NC(=O)[C@@H](NC(=O)[C@@H](N)CO)C(C)C)C(=O)N[C@@H](CCSC)C(=O)O	> 100
CSCC[C@H](NC(=O)[C@H](Cc1ccccc1)NC[C@@H](NCc1cc(Cl)ccc1O)C(C)C)C(=O)O	2.3
CCCOC(=O)c1ccc(O)c(CN[C@H](C(=O)N[C@@H](Cc2ccccc2)C(=O)N[C@@H](CCSC)C(=O)O)C(C)C)c1	~100
CSCC[C@H](NC(=O)[C@H](Cc1ccccc1)NC(=O)[C@@H](NC(c1ncccc1O)c1ncccc1O)C(C)C)C(=O)O	30
CSCC[C@H](NC(=O)[C@H](Cc1ccccc1)NC(=O)[C@@H](NCc1cc(Br)ccc1O)C(C)C)C(=O)O	0.45
CSCC[C@H](NC(=O)[C@H](Cc1ccccc1)NC(=O)[C@@H](NCc1ccccc1SC(c1ccccc1)c1ccccc1)C(C)C)C(=O)O	~100
COCCOCOc1ccc(Cl)cc1CN[C@H](C(=O)N[C@@H](Cc1ccccc1)C(=O)N[C@@H](CCSC)C(=O)O)C(C)C	0.76
COCCOCOc1ccc(C(F)(F)F)cc1CN[C@H](C(=O)N[C@@H](Cc1ccccc1)C(=O)N[C@@H](CCSC)C(=O)O)C(C)C	16
COc1ccc(O)c(CN[C@H](C(=O)N[C@@H](Cc2ccccc2)C(=O)N[C@@H](CCSC)C(=O)O)C(C)C)c1	3.8
CSCC[C@H](NC(=O)[C@H](Cc1ccccc1)NC(=O)[C@@H](NCc1cc(Cl)ccc1O)C(C)C)C(=O)O	0.5
CSCC[C@H](NC(=O)[C@H](Cc1ccccc1)NC(=O)[C@@H](NCc1cccc(OC/C=C(\C)CC/C=C(\C)CCC=C(C)C)c1O)C(C)C)C(=O)O	70
CSCC[C@H](NC(=O)[C@H](Cc1ccccc1)NC(=O)[C@@H](NCc1cc(C(F)(F)F)ccc1O)C(C)C)C(=O)O	2.1
CC(C)[C@H](NCc1cc(F)ccc1O)C(=O)N[C@@H](Cc1ccccc1)C(=O)N[C@@H](CC[S+](C)[O-])C(=O)O (some centres undefined)	1.6
CC[C@H](C)[C@H](NC(=O)[C@@H](NC(=O)[C@@H](N)CS)C(C)C)C(=O)N[C@@H](CCSC)C(=O)O	0.25

The next lines start with the values.

IC50 [µM]	Structure (SMILES)
30	CSCC[C@H](NC(=O)[C@H](Cc1ccccc1)NC(=O)[C@@H](NCc1ncccc1O)C(C)C)C(=O)O
13	CSCC[C@H](NC(=O)[C@H](Cc1ccccc1)NC(=O)[C@@H](NCc1cccc(O)c1)C(C)C)C(=O)O
21	CSCC[C@H](NC(=O)[C@H](Cc1ccccc1)NC(=O)[C@@H](NCc1ccccc1)C(C)C)C(=O)O
2.4	CSCC[C@H](NC(=O)[C@H](Cc1ccccc1)NC(=O)[C@@H](NCc1ccccc1O)C(C)C)C(=O)O
24	CSCC[C@H](NC(=O)[C@H](Cc1ccccc1)NC(=O)[C@@H](NCc1cc(O)ccc1O)C(C)C)C(=O)O
17	CSCC[C@H](NC(=O)[C@H](Cc1ccccc1)NC(=O)[C@@H](NCc1ccc(O)cc1)C(C)C)C(=O)O
22	CSCC[C@H](NC(=O)[C@H](Cc1ccccc1)NC(=O)[C@@H](NCc1ccccc1S)C(C)C)C(=O)O
2.5	CSCC[C@H](NC(=O)[C@H](Cc1ccccc1)NC(=O)[C@@H](NCc1cccc(F)c1O)C(C)C)C(=O)O
6.3	CSCC[C@H](NC(=O)[C@H](Cc1ccccc1)NC(=O)[C@@H](NCc1c(O)ccc2ccccc12)C(C)C)C(=O)O
